In patent US9170257B2 (priority 2012, dated 2015):
Read-outs that look alike come from different tables or passages of the source.

Test: Tissue distribution of curcumin and THC at necropsy 15 minutes post-infusion
Set-up: species or system Beagle dogs
Settings: for Plasma concentration used to calculate Kp: average of end of infusion and 15 minutes post infusion; for concentration at 15 min / Kp at 2 h / Kp at 8 h: both sexes, dog, in vivo, 10 mg/kg; for Kp at 2 h: 2 hr infusion; for Kp at 2 h / Kp at 8 h: H3PO4 stabilized; for Kp at 8 h: 8 hr infusion
Description: The test article will be administered to 8 Beagle dogs by intravenous infusion over two hours (Part A) or eight hours (Part B) as shown in Table 6.
Multiple samples of tissue weighing approximately 1 gram were removed and snap frozen in the presence or absence of phosphoric acid (H3PO4). For all tissue samples, the levels of curcumin and THC were determined using a method developed by the Bioanalytical Department at Nucro-Technics. […] Values that were below the limit of quantification were assigned a value of 0. […] Tissue distribution data was analyzed using, unless stated, the data from 4 dogs and are presented as the mean±standard error (S.E.).

[1] = beagle, read-out: Kp [tissue]/[plasma], Brain Stem
[2] = beagle, read-out: Kp [tissue]/[plasma], Cortex, Brain
[3] = beagle, read-out: Kp [tissue]/[plasma], Hippocampus
[4] = beagle, read-out: Kp [tissue]/[plasma], Kidney
[5] = beagle, read-out: Kp [tissue]/[plasma], Liver
[6] = beagle, read-out: Kp [tissue]/[plasma], Lungs
[7] = beagle, read-out: Kp [tissue]/[plasma], Muscle
[8] = beagle, read-out: Kp [tissue]/[plasma], Pancreas
[9] = beagle, read-out: Kp [tissue]/[plasma], Striatum

Compound: COc1cc(CCC(=O)CC(=O)CCc2ccc(O)c(OC)c2)ccc1O [THC, tetrahydrocurcumin]
- Tissue level, Liver (2 hour infusion, Plus H3PO4): 0.45 ng/g
- Tissue level, Lungs (2 hour infusion, Plus H3PO4): 2.14 ng/g
- Plasma concentration used to calculate Kp (2 hours infusion): 810.9 ng/mL
- Tissue level, Lungs (8 hour infusion, Plus H3PO4): 6.36 ng/g
- Plasma concentration used to calculate Kp (8 hours infusion): 104.5 ng/mL
- concentration at 15 min (Beagle, 2 hour infusion, No H3PO4, read-out: Tissue level, Brain Stem): 2.34 ng/g
- concentration at 15 min (beagle, 2 hour infusion, No H3PO4, read-out: Tissue level, Cortex, Brain): 0.68 ng/g
- concentration at 15 min (beagle, 2 hour infusion, No H3PO4, read-out: Tissue level, Heart): 2.51 ng/g
- concentration at 15 min (beagle, 2 hour infusion, No H3PO4, read-out: Tissue level, Hippocampus): 0.75 ng/g
- concentration at 15 min (beagle, 2 hour infusion, No H3PO4, read-out: Tissue level, Kidney): 3.06 ng/g
- concentration at 15 min (beagle, 2 hour infusion, No H3PO4, read-out: Tissue level, Liver): 1.9 ng/g
- concentration at 15 min (beagle, 2 hour infusion, No H3PO4, read-out: Tissue level, Lungs): 25 ng/g
- concentration at 15 min (beagle, 2 hour infusion, No H3PO4, read-out: Tissue level, Muscle): 5.26 ng/g
- concentration at 15 min (beagle, 2 hour infusion, No H3PO4, read-out: Tissue level, Pancreas): 2.02 ng/g
- concentration at 15 min (beagle, 2 hour infusion, No H3PO4, read-out: Tissue level, Striatum): 6.22 ng/g
- concentration at 15 min (beagle, 2 hour infusion, No H3PO4, read-out: Tissue level, Urinary Bladder): 0.84 ng/g
- concentration at 15 min (beagle, 2 hour infusion, Plus H3PO4, read-out: Tissue level, Brain Stem): 10.6 ng/g
- concentration at 15 min (beagle, 2 hour infusion, Plus H3PO4, read-out: Tissue level, Cortex, Brain): 3.08 ng/g
- concentration at 15 min (beagle, 2 hour infusion, Plus H3PO4, read-out: Tissue level, Heart): 0.69 ng/g
- concentration at 15 min (beagle, 2 hour infusion, Plus H3PO4, read-out: Tissue level, Hippocampus): 6.46 ng/g
- concentration at 15 min (beagle, 2 hour infusion, Plus H3PO4, read-out: Tissue level, Kidney): 4.25 ng/g
- concentration at 15 min (beagle, 2 hour infusion, Plus H3PO4, read-out: Tissue level, Muscle): 4.19 ng/g
- concentration at 15 min (beagle, 2 hour infusion, Plus H3PO4, read-out: Tissue level, Pancreas): 0.92 ng/g
- concentration at 15 min (beagle, 2 hour infusion, Plus H3PO4, read-out: Tissue level, Striatum): 11.1 ng/g
- concentration at 15 min (beagle, 2 hour infusion, Plus H3PO4, read-out: Tissue level, Urinary Bladder): 0.87 ng/g
- Kp at 2 h [1]: 0.0037
- Kp at 2 h [2]: 0.0006
- Kp at 2 h [3]: 0.0014
- Kp at 2 h [4]: 0.0025
- Kp at 2 h [5]: 0.0028
- Kp at 2 h [6]: 0.0078
- Kp at 2 h [7]: 0.0011
- Kp at 2 h [8]: 0.0017
- Kp at 2 h [9]: 0.0039
- Kp at 2 h (beagle, read-out: Kp [tissue]/[plasma], Urinary Bladder): 0.0014
- concentration at 15 min (beagle, 8 hour infusion, No H3PO4, read-out: Tissue level, Brain Stem): 0.83 ng/g
- concentration at 15 min (beagle, 8 hour infusion, No H3PO4, read-out: Tissue level, Cortex, Brain): 0.06 ng/g
- concentration at 15 min (beagle, 8 hour infusion, No H3PO4, read-out: Tissue level, Heart): 0.51 ng/g
- concentration at 15 min (beagle, 8 hour infusion, No H3PO4, read-out: Tissue level, Hippocampus): 0.01 ng/g
- concentration at 15 min (beagle, 8 hour infusion, No H3PO4, read-out: Tissue level, Kidney): 1.32 ng/g
- concentration at 15 min (beagle, 8 hour infusion, No H3PO4, read-out: Tissue level, Liver): 2.63 ng/g
- concentration at 15 min (beagle, 8 hour infusion, No H3PO4, read-out: Tissue level, Lungs): 10.8 ng/g
- concentration at 15 min (beagle, 8 hour infusion, No H3PO4, read-out: Tissue level, Muscle): 0.38 ng/g
- concentration at 15 min (beagle, 8 hour infusion, No H3PO4, read-out: Tissue level, Pancreas): 0.34 ng/g
- concentration at 15 min (beagle, 8 hour infusion, No H3PO4, read-out: Tissue level, Striatum): 1.12 ng/g
- concentration at 15 min (beagle, 8 hour infusion, No H3PO4, read-out: Tissue level, Urinary Bladder): 1.37 ng/g
- concentration at 15 min (beagle, 8 hour infusion, Plus H3PO4, read-out: Tissue level, Brain Stem): 3.02 ng/g
- concentration at 15 min (beagle, 8 hour infusion, Plus H3PO4, read-out: Tissue level, Cortex, Brain): 0.49 ng/g
- concentration at 15 min (beagle, 8 hour infusion, Plus H3PO4, read-out: Tissue level, Heart): 0.03 ng/g
- concentration at 15 min (beagle, 8 hour infusion, Plus H3PO4, read-out: Tissue level, Hippocampus): 1.13 ng/g
- concentration at 15 min (beagle, 8 hour infusion, Plus H3PO4, read-out: Tissue level, Kidney): 2.04 ng/g
- concentration at 15 min (beagle, 8 hour infusion, Plus H3PO4, read-out: Tissue level, Liver): 2.25 ng/g
- concentration at 15 min (beagle, 8 hour infusion, Plus H3PO4, read-out: Tissue level, Muscle): 0.93 ng/g
- concentration at 15 min (beagle, 8 hour infusion, Plus H3PO4, read-out: Tissue level, Pancreas): 1.34 ng/g
- concentration at 15 min (beagle, 8 hour infusion, Plus H3PO4, read-out: Tissue level, Striatum): 3.14 ng/g
- concentration at 15 min (beagle, 8 hour infusion, Plus H3PO4, read-out: Tissue level, Urinary Bladder): 1.11 ng/g
- Kp at 8 h [1]: 0.0289
- Kp at 8 h [2]: 0.0047
- Kp at 8 h (beagle, read-out: Kp [tissue]/[plasma], Heart): 0.0003
- Kp at 8 h [3]: 0.0108
- Kp at 8 h [4]: 0.0195
- Kp at 8 h [5]: 0.0215
- Kp at 8 h [6]: 0.0609
- Kp at 8 h [7]: 0.0089
- Kp at 8 h [8]: 0.0128
- Kp at 8 h [9]: 0.03
